The values that follow come from PubChem BioAssay AID272 (DTP/NCI, 2004).

The assay has as its system Lewis lung carcinoma i.m., BDF1 mice, T/C %. Nature of the assay: NCI In Vivo Anticancer Drug Screen. Data for tumor model Lewis Lung Carcinoma (intramuscular) in B6D2F1 (BDF1) mice. Summed up: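 Transplantable tumour model; readout survival or tumour size; value = treated (T) / vehicle control (C).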

Where “and” joins values, the source holds several entries; their conditions need not be identical. Equal entries are not always repeated. Records with an inconclusive call do not appear.

As for `CN(Cc1cnc2nc(N)nc(N)c2n1)c1ccc(C(=O)N[C@@H](CCC(=O)O)C(=O)O)cc1`, the T/C is 107 % of control (endpoint: mean tumor weight, dose: 0.23 mg/kg/injection, schedule: Q01DX009 (ip), vehicle: sodium bicarbonate, higher = larger tumour); 86 % of control and 100 % of control and 109 % of control (endpoint: mean tumor weight, dose: 0.31 mg/kg/injection, schedule: Q01DX011 (ip), vehicle: other, higher = larger tumour); 71 % of control (endpoint: mean tumor weight, dose: 0.39 mg/kg/injection, schedule: Q01DX009 (ip), vehicle: sodium bicarbonate, higher = larger tumour); 48 % of control and 69 % of control (endpoint: mean tumor weight, dose: 0.65 mg/kg/injection, schedule: Q01DX009 (ip), vehicle: sodium bicarbonate, higher = larger tumour); 53 % of control and 59 % of control (endpoint: mean tumor weight, dose: 1.08 mg/kg/injection, schedule: Q01DX009 (ip), vehicle: sodium bicarbonate, higher = larger tumour); 40 % of control and 44 % of control (endpoint: mean tumor weight, dose: 1.8 mg/kg/injection, schedule: Q01DX009 (ip), vehicle: sodium bicarbonate, higher = larger tumour). The T/C reads like this: (endpoint: mean tumor weight, dose: 2.5 mg/kg/injection, schedule: Q01DX011 (ip), vehicle: other, higher = larger tumour) 94 % of control; (endpoint: mean tumor weight, dose: 23.0 mg/kg/injection, schedule: Q04DX003 (ip), vehicle: sodium bicarbonate, higher = larger tumour) 57 % of control; (endpoint: mean tumor weight, dose: 39.0 mg/kg/injection, schedule: Q04DX003 (ip), vehicle: sodium bicarbonate, higher = larger tumour) 33 % of control; (endpoint: mean tumor weight, dose: 65.0 mg/kg/injection, schedule: Q04DX003 (ip), vehicle: sodium bicarbonate, higher = larger tumour) 13 % of control; (endpoint: median survival time, dose: 0.12 mg/kg/injection, schedule: Q01DX011 (ip), vehicle: sodium bicarbonate, higher = longer survival) 123 % of control; (endpoint: median survival time, dose: 0.23 mg/kg/injection, schedule: Q01DX009 (ip), vehicle: sodium bicarbonate, higher = longer survival) 90 % of control and 93 % of control. Besides, the T/C was 112 % of control and 122 % of control (endpoint: median survival time, dose: 0.25 mg/kg/injection, schedule: Q01DX011 (ip), vehicle: sodium bicarbonate, higher = longer survival); 118 % of control and 121 % of control (endpoint: median survival time, dose: 0.39 mg/kg/injection, schedule: Q01DX009 (ip), vehicle: sodium bicarbonate, higher = longer survival); 108 % of control and 109 % of control (endpoint: median survival time, dose: 0.5 mg/kg/injection, schedule: Q01DX011 (ip), vehicle: sodium bicarbonate, higher = longer survival); 107 % of control (endpoint: median survival time, dose: 1.0 mg/kg/injection, schedule: Q01DX011 (ip), vehicle: sodium bicarbonate, higher = longer survival); 121 % of control (endpoint: median survival time, dose: 2.0 mg/kg/injection, schedule: Q01DX011 (ip), vehicle: sodium bicarbonate, higher = longer survival); 32 % of control (endpoint: median survival time, dose: 3.0 mg/kg/injection, schedule: Q01DX009 (ip), vehicle: sodium bicarbonate, higher = longer survival). Besides, the T/C was 89 % of control (endpoint: median survival time, dose: 14.0 mg/kg/injection, schedule: Q04DX003 (ip), vehicle: sodium bicarbonate, higher = longer survival); 90 % of control and 98 % of control (endpoint: median survival time, dose: 23.0 mg/kg/injection, schedule: Q04DX003 (ip), vehicle: sodium bicarbonate, higher = longer survival); 100 % of control and 112 % of control (endpoint: median survival time, dose: 39.0 mg/kg/injection, schedule: Q04DX003 (ip), vehicle: sodium bicarbonate, higher = longer survival); 34 % of control and 112 % of control (endpoint: median survival time, dose: 65.0 mg/kg/injection, schedule: Q04DX003 (ip), vehicle: sodium bicarbonate, higher = longer survival).

As to `CC1CC(C)(O)CC(C(O)CC2CC(=O)NC(=O)C2)C1=O` (stereo unspecified), the T/C reads like this: (endpoint: mean tumor weight, dose: 0.1 mg/kg/injection, schedule: Q01DX011 (ip), vehicle: saline, higher = larger tumour) 56 % of control; (endpoint: median survival time, dose: 0.1 mg/kg/injection, schedule: Q01DX011 (ip), vehicle: saline, higher = longer survival) 90 % of control.

Turning to `CCN1c2ccccc2C(Cl)(c2ccc(N(C)C)cc2)c2ccccc21`, the T/C was 121 % of control (endpoint: mean tumor weight (est.), dose: 3.13 mg/kg/injection, schedule: Q01DX011 (ip), vehicle: saline, higher = larger tumour); 50 % of control (endpoint: mean tumor weight (est.), dose: 6.25 mg/kg/injection, schedule: Q01DX011 (ip), vehicle: saline, higher = larger tumour); 47 % of control (endpoint: mean tumor weight (est.), dose: 12.5 mg/kg/injection, schedule: Q01DX011 (ip), vehicle: saline, higher = larger tumour).

For the compound `CC1(C)N=C(N)N=C(N)N1c1ccc(CCCCc2ccc(Cl)cc2Cl)cc1`, the T/C was 65 % of control (endpoint: mean tumor weight, dose: 1.25 mg/kg/injection, schedule: Q01DX011 (ip), vehicle: saline, higher = larger tumour); 71 % of control (endpoint: mean tumor weight, dose: 2.5 mg/kg/injection, schedule: Q01DX011 (ip), vehicle: saline, higher = larger tumour); 31 % of control (endpoint: mean tumor weight, dose: 5.0 mg/kg/injection, schedule: Q01DX011 (ip), vehicle: saline, higher = larger tumour); 65 % of control (endpoint: mean tumor weight, dose: 10.0 mg/kg/injection, schedule: Q01DX011 (ip), vehicle: saline, higher = larger tumour); 110 % of control (endpoint: median survival time, dose: 1.25 mg/kg/injection, schedule: Q01DX011 (ip), vehicle: saline, higher = longer survival); 93 % of control (endpoint: median survival time, dose: 2.5 mg/kg/injection, schedule: Q01DX011 (ip), vehicle: saline, higher = longer survival). The T/C is, setting by setting: (endpoint: median survival time, dose: 5.0 mg/kg/injection, schedule: Q01DX011 (ip), vehicle: saline, higher = longer survival) 104 % of control; (endpoint: median survival time, dose: 10.0 mg/kg/injection, schedule: Q01DX011 (ip), vehicle: saline, higher = longer survival) 91 % of control.

`COc1cc([C@@H]2c3cc4c(cc3[C@@H](OC3OC5CO[C@@H](c6cccs6)OC5C(O)C3O)[C@H]3COC(=O)[C@H]23)OCO4)cc(OC)c1O` (stereo partly specified): the T/C (endpoint: mean tumor weight (est.), dose: 0.25 mg/kg/injection, schedule: Q01DX011 (ip), vehicle: saline, higher = larger tumour) is 98 % of control; the T/C (endpoint: mean tumor weight (est.), dose: 0.5 mg/kg/injection, schedule: Q01DX011 (ip), vehicle: saline, higher = larger tumour) was 74 % of control; the T/C (endpoint: mean tumor weight (est.), dose: 1.0 mg/kg/injection, schedule: Q01DX011 (ip), vehicle: saline, higher = larger tumour) was 68 % of control; the T/C (endpoint: mean tumor weight (est.), dose: 2.0 mg/kg/injection, schedule: Q01DX011 (ip), vehicle: saline, higher = larger tumour) was 45 % of control; the T/C (endpoint: median survival time, dose: 0.25 mg/kg/injection, schedule: Q01DX011 (ip), vehicle: saline, higher = longer survival) was 118 % of control; the T/C (endpoint: median survival time, dose: 0.5 mg/kg/injection, schedule: Q01DX011 (ip), vehicle: saline, higher = longer survival) is 104 % of control. For the same compound, the T/C is 106 % of control (endpoint: median survival time, dose: 1.0 mg/kg/injection, schedule: Q01DX011 (ip), vehicle: saline, higher = longer survival); 114 % of control (endpoint: median survival time, dose: 2.0 mg/kg/injection, schedule: Q01DX011 (ip), vehicle: saline, higher = longer survival); 104 % of control (endpoint: median survival time, dose: 2.0 mg/kg/injection, schedule: Q04DX003 (ip), vehicle: saline, higher = longer survival); 105 % of control (endpoint: median survival time, dose: 4.0 mg/kg/injection, schedule: Q04DX003 (ip), vehicle: saline, higher = longer survival); 115 % of control (endpoint: median survival time, dose: 8.0 mg/kg/injection, schedule: Q04DX003 (ip), vehicle: saline, higher = longer survival); 37 % of control (endpoint: median survival time, dose: 32.0 mg/kg/injection, schedule: Q04DX003 (ip), vehicle: saline, higher = longer survival).

For the compound `CCCCCCC(=O)O[C@H]1CC[C@H]2[C@@H]3CCC4=CC(=O)CC[C@]4(C)[C@H]3CC[C@]12C`, the T/C is, setting by setting: (endpoint: median survival time, dose: 20.0 mg/kg/injection, schedule: Q01DX009 (ip), vehicle: Klucel (hydroxypropylcellulose) (HPC), higher = longer survival) 94 % of control; (endpoint: median survival time, dose: 40.0 mg/kg/injection, schedule: Q01DX009 (ip), vehicle: Klucel (hydroxypropylcellulose) (HPC), higher = longer survival) 90 % of control; (endpoint: median survival time, dose: 80.0 mg/kg/injection, schedule: Q01DX009 (ip), vehicle: Klucel (hydroxypropylcellulose) (HPC), higher = longer survival) 91 % of control; (endpoint: median survival time, dose: 160.0 mg/kg/injection, schedule: Q01DX009 (ip), vehicle: Klucel (hydroxypropylcellulose) (HPC), higher = longer survival) 110 % of control.

Consider `O=C(O)c1[nH]c(=O)[nH]c(=O)c1F`, for which the T/C (endpoint: median survival time, dose: 0.19 mg/kg/injection, schedule: Q01DX011 (ip), vehicle: sodium bicarbonate, higher = longer survival) was 100 % of control; the T/C (endpoint: median survival time, dose: 0.38 mg/kg/injection, schedule: Q01DX011 (ip), vehicle: sodium bicarbonate, higher = longer survival) was 111 % of control; the T/C (endpoint: median survival time, dose: 0.75 mg/kg/injection, schedule: Q01DX011 (ip), vehicle: sodium bicarbonate, higher = longer survival) was 92 % of control; the T/C (endpoint: median survival time, dose: 1.5 mg/kg/injection, schedule: Q01DX011 (ip), vehicle: sodium bicarbonate, higher = longer survival) was 100 % of control; the T/C (endpoint: median survival time, dose: 2.5 mg/kg/injection, schedule: Q01DX011 (ip), vehicle: other, higher = longer survival) was 105 % of control; the T/C (endpoint: median survival time, dose: 3.12 mg/kg/injection, schedule: Q01DX011 (ip), vehicle: sodium bicarbonate, higher = longer survival) is 101 % of control. In addition, the T/C reads like this: (endpoint: median tumor weight (est.), dose: 0.19 mg/kg/injection, schedule: Q01DX011 (ip), vehicle: sodium bicarbonate, higher = larger tumour) 96 % of control; (endpoint: median tumor weight (est.), dose: 0.38 mg/kg/injection, schedule: Q01DX011 (ip), vehicle: sodium bicarbonate, higher = larger tumour) 85 % of control; (endpoint: median tumor weight (est.), dose: 0.75 mg/kg/injection, schedule: Q01DX011 (ip), vehicle: sodium bicarbonate, higher = larger tumour) 101 % of control; (endpoint: median tumor weight (est.), dose: 1.5 mg/kg/injection, schedule: Q01DX011 (ip), vehicle: sodium bicarbonate, higher = larger tumour) 108 % of control; (endpoint: median tumor weight (est.), dose: 3.12 mg/kg/injection, schedule: Q01DX011 (ip), vehicle: sodium bicarbonate, higher = larger tumour) 81 % of control.

On to `CCN(CCO)CCNc1ccc(C)c2sc3ccccc3c(=O)c12`, for which the T/C by setting is: (endpoint: mean tumor weight (est.), dose: 21.0 mg/kg/injection, schedule: Q01DX011 (ip), vehicle: saline, higher = larger tumour) 69 % of control; (endpoint: mean tumor weight (est.), dose: 42.0 mg/kg/injection, schedule: Q01DX011 (ip), vehicle: saline, higher = larger tumour) 44 % of control; (endpoint: median survival time, dose: 21.0 mg/kg/injection, schedule: Q01DX011 (ip), vehicle: saline, higher = longer survival) 104 % of control; (endpoint: median survival time, dose: 42.0 mg/kg/injection, schedule: Q01DX011 (ip), vehicle: saline, higher = longer survival) 110 % of control.
